Laboratory results: ChEMBL document CHEMBL1130043, “Chemometric methodologies in a quantitative structure-activity relationship study: the antibacterial activity of 6-aminoquinolones” (1997)

Key:
Assay type in all cases: functional
[1] = system: Acinetobacter calcoaceticus; test: Antibacterial activity against Acinetobacter calcoaceticus OSMPV 113 (Gram negative) strain.
Escherichia coli [2] = test: Antibacterial activity against Escherichia coli ATCC 8739(Gram negative) strain.
Escherichia coli [3] = test: Antibacterial activity against Escherichia coli ISF 432(Gram negative) strain.
Enterobacter cloacae = test: Antibacterial activity against Enterobacter cloacae OMNFI 174 (Gram negative) strain.
Klebsiella pneumoniae = test: Antibacterial activity against Klebsiella pneumoniae ATCC 10031 (Gram negative) strain.
Providencia stuartii = test: Antibacterial activity against Providencia stuartii CNUR 5(Gram negative) strain.
Pseudomonas aeruginosa = test: Antibacterial activity against Pseudomonas aeruginosa ATCC 9027(Gram negative) strain.
Shigella = test: Antibacterial activity against Shigella enteritidis (Gram negative) strain.
[4] = system: Staphylococcus epidermidis; test: Antibacterial activity against Staphylococcus epidermidis HCF Berset C (Gram positive) strain.
[5] = system: Staphylococcus epidermidis; test: Antibacterial activity against Staphylococcus epidermidis CPHL A2 (Gram positive) strain, activity is expressed as log2MIC.
Staphylococcus aureus [6] = test: Antibacterial activity against Staphylococcus aureus MPR 5 (Gram positive) strain.
Enterococcus faecalis = test: Antibacterial activity against Streptococcus faecalis LEP Br (Gram positive) strain.
Staphylococcus aureus [7] = test: Antibacterial activity against Staphylococcus aureus ATCC 6538 (Gram positive) strain.

Row | Log2 MIC [1] | Log2 MIC (Escherichia coli [2]) | Log2 MIC (Escherichia coli [3]) | Log2 MIC (Enterobacter cloacae) | Log2 MIC (Klebsiella pneumoniae) | Log2 MIC (Providencia stuartii) | Log2 MIC (Pseudomonas aeruginosa) | Log2 MIC (Shigella) | Log2 MIC [4] | Log2 MIC [5] | Log2 MIC (Staphylococcus aureus [6]) | Log2 MIC (Enterococcus faecalis) | Log2 MIC (Staphylococcus aureus [7]) | Structure (SMILES)
1 | 2 | 9 | 12 | 9 | 12 | 4 | 5 | 9 | 5 | 6 | 6 | 2 | 6 | CN1CCN(c2cc3c(cc2N)c(=O)c(C(=O)O)cn3C2CC2)CC1
2 | 7 | 10 | 11 | 7 | 12 | 8 | 5 | 5 | 7 | 8 | 9 | 5 | 8 | Nc1cc2c(=O)c(C(=O)O)cn(C3CC3)c2c(F)c1N1CCSCC1
3 | 2 | 8 | 8 | 6 | 8 | 0 | 2 | 6 | 2 | 1 | 0 | 0 | 0 | NCCN1CCN(c2cc3c(cc2N)c(=O)c(C(=O)O)cn3C2CC2)CC1
4 | 6 | 12 | 12 | 10 | 12 | 6 | 5 | 9 | 5 | 5 | 6 | 5 | 6 | CN1CCN(c2c(N)c(N)c3c(=O)c(C(=O)O)cn(C4CC4)c3c2F)CC1
5 | 7 | 12 | 12 | 8 | 12 | 7 | 6 | 8 | 6 | 7 | 8 | 4 | 8 | Nc1cc2c(=O)c(C(=O)O)cn(C3CC3)c2cc1N1CCSCC1
6 | 3 | 10 | 10 | 3 | 10 | 1 | 1 | 2 | 4 | 4 | 4 | 0 | 5 | CC(C)(C)n1cc(C(=O)O)c(=O)c2cc(N)c(N3CCCC3)cc21
7 | 0 | 6 | 5 | 1 | 6 | 0 | 0 | 1 | 0 | 0 | 0 | 0 | 0 | Nc1cc2c(=O)c(C(=O)O)cn(C3CC3)c2cc1NC1CC1
8 | 0 | 9 | 9 | 4 | 9 | 0 | 0 | 3 | 0 | 0 | 0 | 0 | 0 | Nc1cc2c(=O)c(C(=O)O)cn(C3CC3)c2cc1N1CCCC1
9 | 8 | 11 | 12 | 6 | 12 | 5 | 5 | 6 | 8 | 8 | 9 | 4 | 9 | CC(C)(C)n1cc(C(=O)O)c(=O)c2cc(N)c(N3CCSCC3)cc21
10 | 0 | 12 | 12 | 6 | 12 | 4 | 4 | 6 | 5 | 6 | 5 | 4 | 5 | Nc1cc2c(=O)c(C(=O)O)cn(C3CC3)c2cc1N1CCC(O)CC1
11 | 0 | 8 | 7 | 3 | 8 | 0 | 0 | 2 | 1 | 1 | 0 | 0 | 1 | Nc1cc2c(=O)c(C(=O)O)cn(C3CC3)c2cc1N1CCSC1
12 | 6 | 11 | 12 | 8 | 12 | 6 | 6 | 9 | 6 | 7 | 7 | 3 | 7 | Cc1c(N2CC(C)NC(C)C2)c(N)cc2c(=O)c(C(=O)O)cn(C3CC3)c12 (stereo unspecified)
13 | 4 | 10 | 10 | 4 | 10 | 5 | 2 | 4 | 5 | 5 | 6 | 1 | 6 | CC(C)(C)n1cc(C(=O)O)c(=O)c2cc(N)c(N3CCc4ccccc43)cc21
14 | 1 | 5 | 6 | 6 | 6 | 1 | 2 | 6 | 1 | 1 | 1 | 1 | 1 | N#CCN1CCN(c2cc3c(cc2N)c(=O)c(C(=O)O)cn3C2CC2)CC1
15 | 7 | 8 | 8 | 1 | 9 | 0 | 0 | 1 | 6 | 7 | 7 | 3 | 7 | CC(C)(C)n1cc(C(=O)O)c(=O)c2cc(N)c(N3CCN(c4ccccn4)CC3)cc21
16 | 4 | 12 | 12 | 8 | 12 | 5 | 6 | 9 | 5 | 6 | 4 | 2 | 4 | CC1CN(c2cc3c(cc2N)c(=O)c(C(=O)O)cn3C2CC2)CC(C)N1 (stereo unspecified)
17 | 4 | 7 | 11 | 9 | 11 | 5 | 6 | 8 | 4 | 5 | 5 | 1 | 5 | CN1CCN(c2c(N)cc3c(=O)c(C(=O)O)cn(C4CC4)c3c2F)CC1
18 | 5 | 10 | 12 | 10 | 12 | 6 | 6 | 10 | 5 | 5 | 5 | 0 | 5 | CN1CCN(c2nc3c(cc2N)c(=O)c(C(=O)O)cn3C2CC2)CC1
19 | 3 | 12 | 12 | 9 | 12 | 3 | 6 | 9 | 5 | 5 | 3 | 2 | 3 | CC1CN(c2cc3c(cc2N)c(=O)c(C(=O)O)cn3C2CC2)CCN1 (stereo unspecified)
20 | 6 | 10 | 10 | 4 | 10 | 5 | 2 | 4 | 7 | 8 | 8 | 4 | 9 | CC(C)(C)n1cc(C(=O)O)c(=O)c2cc(N)c(N3CCc4ccccc4C3)cc21
21 | 3 | 9 | 12 | 9 | 9 | 2 | 6 | 8 | 3 | 3 | 1 | 0 | 1 | Nc1cc2c(=O)c(C(=O)O)cn(C3CC3)c2cc1N1CCNCC1

Row | Structure (SMILES) | Log2 MIC [1] | Log2 MIC (Escherichia coli [2]) | Log2 MIC (Escherichia coli [3]) | Log2 MIC (Enterobacter cloacae) | Log2 MIC (Klebsiella pneumoniae) | Log2 MIC (Providencia stuartii) | Log2 MIC (Pseudomonas aeruginosa) | Log2 MIC (Shigella) | Log2 MIC [4] | Log2 MIC [5] | Log2 MIC (Staphylococcus aureus [6]) | Log2 MIC (Enterococcus faecalis) | Log2 MIC (Staphylococcus aureus [7])
22 | Cc1c(N2CCNCC2)c(N)cc2c(=O)c(C(=O)O)cn(C3CC3)c12 | 6 | 12 | 12 | 11 | 12 | 6 | 7 | 12 | 4 | 5 | 5 | 3 | 6
